Data as given in BigSolDB 2.1.

CC(C)(Oc1ccc(CCNC(=O)c2ccc(Cl)cc2)cc1)C(=O)O
solubility (mole fraction) (in ethanol, 283.15 K): 0.00223
solubility (mole fraction) (in ethanol, 288.15 K): 0.00271
solubility (mole fraction) (in ethanol, 293.15 K): 0.00332
solubility (mole fraction) (in ethanol, 298.15 K): 0.00402
solubility (mole fraction) (in ethanol, 303.15 K): 0.00482
solubility (mole fraction) (in ethanol, 308.15 K): 0.00571
solubility (mole fraction) (in ethanol, 313.15 K): 0.00689
solubility (mole fraction) (in ethanol, 318.15 K): 0.00815
solubility (mole fraction) (in ethanol, 323.15 K): 0.00977
solubility (mole fraction) (in isopropanol, 283.15 K): 0.00152
solubility (mole fraction) (in isopropanol, 288.15 K): 0.00189
solubility (mole fraction) (in isopropanol, 293.15 K): 0.00237
solubility (mole fraction) (in isopropanol, 298.15 K): 0.00307
solubility (mole fraction) (in isopropanol, 303.15 K): 0.00384
solubility (mole fraction) (in isopropanol, 308.15 K): 0.00476
solubility (mole fraction) (in isopropanol, 313.15 K): 0.00563
solubility (mole fraction) (in isopropanol, 318.15 K): 0.00689
solubility (mole fraction) (in isopropanol, 323.15 K): 0.00832
solubility (mole fraction) (in methanol, 283.15 K): 0.0019
solubility (mole fraction) (in methanol, 288.15 K): 0.00228
solubility (mole fraction) (in methanol, 293.15 K): 0.00283
solubility (mole fraction) (in methanol, 298.15 K): 0.00343
solubility (mole fraction) (in methanol, 303.15 K): 0.0043
solubility (mole fraction) (in methanol, 308.15 K): 0.00526
solubility (mole fraction) (in methanol, 313.15 K): 0.00648
solubility (mole fraction) (in methanol, 318.15 K): 0.00791
solubility (mole fraction) (in methanol, 323.15 K): 0.00948
solubility (mole fraction) (in n-propanol, 283.15 K): 0.00246
solubility (mole fraction) (in n-propanol, 288.15 K): 0.00297
solubility (mole fraction) (in n-propanol, 293.15 K): 0.00361
solubility (mole fraction) (in n-propanol, 298.15 K): 0.00437
solubility (mole fraction) (in n-propanol, 303.15 K): 0.00524
solubility (mole fraction) (in n-propanol, 308.15 K): 0.00631
solubility (mole fraction) (in n-propanol, 313.15 K): 0.00743
solubility (mole fraction) (in n-propanol, 318.15 K): 0.0088
solubility (mole fraction) (in n-propanol, 323.15 K): 0.0101
solubility (mole fraction) (in water, 283.15 K): 1.23e-06
solubility (mole fraction) (in water, 288.15 K): 1.58e-06
solubility (mole fraction) (in water, 293.15 K): 2.01e-06
solubility (mole fraction) (in water, 298.15 K): 2.56e-06
solubility (mole fraction) (in water, 303.15 K): 3.29e-06
solubility (mole fraction) (in water, 308.15 K): 4.13e-06
solubility (mole fraction) (in water, 313.15 K): 5.13e-06
solubility (mole fraction) (in water, 318.15 K): 6.3e-06
solubility (mole fraction) (in water, 323.15 K): 7.83e-06
